# Data taken from patent publication US20250195599A1, “ANTI-DIABETIC STEROIDAL LACTONES OF WITHANIA COAGULANS FOR TREATMENT OF TYPE 2 DIABETES” (Khalifa University of Science and Technology, priority 2022, published 2025).
# Assays:
# [1] = system: Diseased Human Skeletal Muscle Myoblasts (D-HSMM) diabetes type II; format: cell-based
# Description: Measurement of cellular viability: Cell proliferation was measured by using MTT 3-(4,5-dimethylthiazol-2-yl)-2,5-diphenyltetrazolium bromide (MTT) (Cat no: M2128, Sigma Aldrich, USA). […] After 48 h of incubation, plates were removed from the CO2incubator and washed with 200 μl PBS. Thereafter, 100 μl of MTT solution (0.5 mg/ml in SkGM-2 medium) was added to each well. The contents were placed on a shaker for 5 min and were incubated for 4 hours in a CO2 incubator to allow the MTT to be metabolized. After incubation, the supernatant was removed, and the plate was washed with 300 μl PBS. The plates were inverted and strongly tapped on a paper towel to remove the medium completely. […] For the blank control, wells were set without cells but received all the reagents.
# MAFbx/atrogin-1 = assay: Atrogin-1/Fbx32 immunofluorescence staining in D-HSMM; format: cell-based, human; conditions: 48 h, optimum concentration, vs. control (non-treated cells), FIG. 4A
# Description: The supernatant was removed, cells were washed with warm PBS (37° C.), fixed with phosphate-buffered saline (PBS) containing 4% paraformaldehyde at room temperature for 10 mins. Cells were permeabilized with 0.25% Triton X-100 on PBS for 10 mins at 25° C. The cells were then blocked with 100 μl of 10% NGS in PBS at room temperature for 2 hours. The cells were then incubated with 50 μl primary Anti-Fbx32 antibody (Cat no: NBP2-76836, Novus Biological, USA) diluted 1:100 in block solution overnight at 4° C. Cells were washed in PBS three times (200 μl), incubated with 50 μl Goat anti-Rabbit IgG (H+L) (Cross adsorbed, Alexa Fluor 488, Cat no: R37116, Thermo Fisher Scientific, USA) secondary antibody at room temperature for 30 min. Nuclei were counterstained with 1 μg/ml Hoechst 33342 solution (Cat no: 62249, Thermo Fisher Scientific, USA) in PBS (100 μl/well). For each treatment, cells were examined under EVOS F1 Microscope (Cat no: AMF4300, Life Technologies, USA) and photographed. Approximately 10-12 digital photographs were taken of each treatment for subsequent offline analysis. The total number of immune-positive and immuno-negative cells were counted using Image J (NIH, USA) software. […] Data were presented as a percentage of control (untreated cells).
# D-HSMM myotubes = assay: Insulin-stimulated 2-NBDG glucose uptake in D-HSMM myotubes; format: cell-based, human; conditions: FIG. 7
# Description: Insulin-stimulated 2-NBDG uptake: The ability of the test compounds on insulin-stimulated glucose uptake was measured using the Glucose Uptake Cell-Based Assay Kit (Cat no: 600470, Cayman, Michigan, USA) according to the manufacturer's instructions. Briefly, the cells were seeded at a density of 2×10^3 cells/well in a 96 well black, clear-bottom poly D lysine coated plate and allowed to grow with a media change after every 48 hours. […] Subsequently, cells were washed with 300 μl PBS three times and incubated with PBS for 5 mins at 37° C., in a CO2 incubator. Cells were challenged for 20 min with 50 μl of 100 nM insulin and 50 μl of 100 μg/ml fluorescent glucose analog 2-deoxy-2-[(7-nitro-2,1,3-benzoxadiazol-4-yl) amino]-D-glucose (2-NBDG) in Krebs/Ringer buffer (KRB) (118.5 mM NaCl, 25 mM NaHCO3, 4.74 mM KCl, 1.19 mM MgSO4, 2.54 mM CaCl2, 10 mM HEPES, 1.19 mM KH2PO4, 0.1% BSA) (pH 7.4). At the end of the incubation, the plates were centrifuged for 3 mins at 400×g at room temperature, and the supernatant was aspirated. Cells were washed with 200 μl/well cell-based assay buffer and centrifuged for 3 mins at 400×g at room temperature. […] The fluorescence reading of each well was immediately measured (excitation/emission=485 nm/535 nm) by using a Tecan multimode plate reader (Cat no: M200, Tecan, Switzerland). […]
# urease = conditions: stated as background knowledge; cited from earlier work
# bovine embryo = conditions: stated as background knowledge; cited from earlier work
# GLUT4 = assay: Total GLUT4 immunofluorescence in D-HSMM myotubes; format: cell-based, human; conditions: FIG. 6B; for expression of GLUT-4: treated 24 h on day 8, 100 nM insulin challenge, vs. D-HSMM control (untreated cell)
# Description: Measurement of Total GLUT4: Approximately 2×10^3 cells were seeded in a 96 well clear bottom black poly D lysine (5 μg/cm^2) coated plate and allow to grow with a media change after every 48 h. […] The supernatant was removed and challenged for 5 mins with 100 nM insulin. Next, cells were washed with warm PBS (37° C.), fixed with phosphate-buffered saline (PBS) containing 4% paraformaldehyde at room temperature for 10 mins. Cells were permeabilized with 0.5% Triton X-100 on PBS for 10 mins at 25° C. The cells were then blocked with 100 μl of 10% NGS in PBS at room temperature for 2 hours. The cells were then incubated with 50 μl GLUT4 antibody (Cat no: NBP1-49533, Novus Biological, USA) diluted 1:100 in block solution overnight at 4° C. Cells were washed in PBS three times (200 μl), incubated with 50 μl Goat anti-Rabbit IgG (H+L) (Cross adsorbed, Alexa Fluor 488, Cat no: R37116, Thermo Fisher Scientific, USA) secondary antibody at room temperature for 30 min. Total fluorescence was measured m at […] (excitation/emission) by Tecan multimode plate reader (M200, Tecan, Switzerland). Cells without primary antibody were used for blank reduction. The relative GLUT 4 (%) related to control wells containing cells with DMEM:F12 medium was calculated by (RFU) test/(RFU) control×100. Where (RFU) test is the fluorescence of the test sample and (RFU) control is the fluorescence of the control sample.
# myogenin = assay: Myogenin immunofluorescence staining in D-HSMM; format: cell-based, human; conditions: 48 h, optimum concentration, vs. D-HSMM control (untreated cells), FIG. 3A
# Description: The supernatant was removed, cells were washed with warm PBS (37° C.), fixed with 100 μl PBS containing 4% paraformaldehyde at room temperature for 10 mins. Cells were permeabilized with 100 μl of 0.25% Triton X-100 on PBS for 10 mins at 25° C. The cells were then blocked with 100 μl of 10% normal goat serum (NGS), incubated with 50 μl of primary anti-myogenin antibody (Cat no: MAB3876, Merck Millipore, USA) diluted 1:500 in block solution overnight at 4° C. Cells were washed in PBS (200 μl) three times, incubated with 50 μl Goat anti-Mouse IgG (H+L) secondary antibody (Cross adsorbed, Alexa Fluor 594, Cat no: R37121, Thermo Fisher Scientific, USA) at room temperature for 30 min. Nuclei were counterstained with 1 μg/ml Hoechst 33342 solution (Cat no: 62249, Thermo Fisher Scientific, USA) in PBS (100 μl/well). For each treatment, cells were examined under EVOS F1 Microscope (Cat no: AMF4300, Life Technologies, USA) and photographed. Approximately 10-12 digital photographs were taken of each treatment for subsequent offline analysis. The total number of immune-positive and immuno-negative cells were counted using Image J (NIH, USA) software. […] Data were presented as a percentage of control (untreated cells).
# GLUT1 = assay: Cell-based GLUT1 ELISA in D-HSMM myotubes; set-up: species or system human; conditions: treated 24 h on day 8, FIG. 6A
# Description: After 24 hours, GLUT1 was measured by using CytoGlow™ cell-based GLUT 1 ELISA kit (Cat no: MBS95002558, MyBioSource, USA), according to the manufacturer's protocol. Briefly, cells were fixed with phosphate-buffered saline (PBS) containing 4% paraformaldehyde at room temperature for 20 mins. Next, cells were quenched for 20 mins at room temperature. Cells were washed in PBS three times, blocked at room temperature for 1 hour. Cells were washed in PBS three times, incubated with primary GLUTI antibody overnight at 4° C. Cells were washed in PBS three times (200 μl), incubated with HRP-conjugated secondary antibody at room temperature for 1.5 hours. Cells were washed in PBS three times and incubated with a ready-to-use substrate for 30 minutes at room temperature in the dark with gentle shaking on the shaker. The reaction was stopped, and OD was measured at 450 nm immediately using an Emax Plus microplate reader (Molecular devices, CA 94089, USA).
# MyoD = assay: MyoD1 immunofluorescence staining in D-HSMM; format: cell-based, human; conditions: for MyoD positive cells: optimum concentration, vs. D-HSMM control (non-treated cells)
# Description: The supernatant was removed, cells were washed with warm PBS (37° C.), fixed, and permeabilized with 100 μl phosphate-buffered saline (PBS) containing 4% paraformaldehyde and 0.1% Triton X-100 at room temperature for 10 mins. Next, cells were blocked with 1% BSA (100 μl) in PBS at room temperature for 1 hour. The cells were then incubated with 50 μl of primary anti-MyoD1 antibody (Cat no: ab16148, Abcam, USA), diluted 1:100 in a block solution, overnight at 4° C. Cells were washed in PBS three times, incubated with 50 μl Goat anti-Mouse IgG (H+L) secondary antibody (Cross adsorbed, Alexa Fluor 594, Cat no: R37121, Thermo Fisher Scientific, USA) at room temperature for 30 min. Nuclei were counterstained with 1 μg/ml Hoechst 33342 solution (Cat no: 62249, Thermo Fisher Scientific, USA) in PBS (100 μl/well). For each treatment, cells were examined under EVOS F1 Microscope (Cat no: AMF4300, Life Technologies, USA) and photographed. Approximately 10-12 digital photographs were taken of each treatment for subsequent offline analysis. The total number of immune-positive and immuno-negative cells were counted using Image J (NIH, USA) software. […] Data were presented as a percentage of control (untreated cells).
# [2] = system: Diseased Human Skeletal Muscle Myoblasts (D-HSMM) diabetes type II; assay: LDH release cytotoxicity assay; conditions: D-HSMM myoblasts treated 48 h; W. Coagulans and Coagulansin-A 1×10^−15 g/ml; vs. control (non-treated cells); FIG. 2A
# Description: Cell line: The Clonetics® Diseased Human Skeletal Muscle Myoblasts (D-HSMM) diabetes type II, (Cat no: CC-2901) sourced from a donor, were purchased from Lonza (Lonza Bioscience, USA).
# Cells were cultured in the growth medium, Skeletal Muscle Growth Media-2 (SkGM-2; CC-3244) containing basal medium, Human epidermal growth factor (hEGF), Dexamethasone, L-glutamine, Fetal Bovine Serum (FBS), and Gentamicin/Amphotericin B (GA-1000). Cells were seeded at 6250 cells/cm^2 in T175 flasks and maintained at 37° C. in a humidified incubator (Thermo Scientific, USA) containing 5% carbon dioxide (CO2). After 24 hours, when cells adhered to the bottom of the flask, media was changed every 24-48 hours. […]
# The cytotoxicity detection kit (Cat no: 11644793001, Roche, USA) was used to measure lactate dehydrogenase (LDH) release according to the manufacturer's instructions. Briefly, released LDH in culture supernatants was measured with a 30-mins coupled enzymatic assay that results in the reduction of tetrazolium salt, Iodotetrazolium chloride (INT) into a formazan (red). […] Absorbance at 490 nm was measured with an Emax Plus microplate reader (CA 94089, Molecular devices, USA). The reader was calibrated to zero absorbance using a culture medium without cells. The untreated cells served as the control, and results were calculated as the percentage of viability in relation to the control. […]
Compound,"MTT metabolic rate, dose optimization [1]",MTT viability [1],expression of atrogin1 (MAFbx/atrogin-1),"insulin-stimulated glucose uptake (2-NBDG) (D-HSMM myotubes; treated 24 h, vs. control (untreated cells))","insulin-stimulated glucose uptake compared to positive controls (D-HSMM myotubes; vs. insulin, metformin, and pioglitazone)",antiurease activity (urease),effects on development of bovine embryo (bovine embryo),expression of GLUT-4 (GLUT4),expression of GLUT-4 compared to metformin (GLUT4; vs. metformin (as printed in text)),expression of myogenin (myogenin),expression of GLUT1 (GLUT1),"MyoD positive cells compared to metformin and pioglitazone (MyoD; D-HSMM myoblasts, 48 h, vs. metformin and pioglitazone treated cells, FIG. 5A)","MyoD positive cells (MyoD; D-HSMM, 48 h, FIG. 5A)","MyoD positive cells, dose optimization (MyoD; D-HSMM, concentration 10^−15 g/ml (of 10^−13, 10^−15, 10^−17 g/ml tested), vs. diabetic control, FIG. 9)",LDH release [2]
"CC1=C(CO)C(=O)O[C@@H]([C@](C)(O)[C@]2(O)CC[C@@]3(O)C4CC=C5CC=CC(=O)[C@]5(C)C4CC[C@]23C)C1 (stereo partly drawn) [Coagulansin-A, (14α, 17S,20S,22R)-14, 17,20,27-tetrahydroxy-1-oxowitha-2,5,24-trienolide)]",did not affect the metabolic rate,did not affect the viability,significantly suppressed expression,significantly enhanced glucose uptake,increased glucose uptake,antiurease activity,beneficial effects on development of bovine embryo,upregulated,significant increase,significantly increased expression,remained unaffected,Significantly increased MyoD positive cells,enhanced expression,enhanced expression,–
"COc1ccc(Cl)cc1C(=O)NCCc1ccc(S(=O)(=O)NC(=O)NC2CCCCC2)cc1 [Glibenclamide, reference compound]",–,–,–,–,–,–,–,–,–,–,–,–,enhanced expression,–,–
CN(C)C(=N)N=C(N)N [Metformin],–,–,significantly suppressed expression,–,–,–,–,–,–,remained unaffected,–,–,did not show any difference,–,–
Insulin,–,–,significantly suppressed expression,–,–,–,–,upregulated,–,significantly increased expression,–,–,enhanced expression,–,significant decrease
